System: CXCL10 production
Experiment: CXCL10 production inhibition test
Format: cell-based
Conditions: Endothelial cell; test compound 0.1 μmol/L; human umbilical vein-derived endothelial cells; TNFα 10 ng/mL; supernatant 72 hours after stimulation; ELISA; read-out: Rate of inhibition of CXCL10 production
Procedure: (CXCL10 Production Inhibition Test)
0.5×10^4 or 1×10^4 human umbilical vein-derived endothelial cells were suspended in 100 μL of an EGM-2 BulletKit medium (without GA) or a Medium-200 medium supplemented with an EGM-2 SingleQuots kit (without GA), inoculated to a 96-well plate and cultured overnight. 100 μL of a solution of each test compound diluted with the same medium as that used in the inoculation was added to the cultured cells (final concentration of the test compound: 0.1 μmol/L). 1 hour thereafter, TNFα was added thereto at a final concentration of 10 ng/mL. 72 hours after the stimulation, the supernatant was recovered, and the amount of CXCL10 produced in the culture supernatant was determined using an ELISA kit (Peprotech, 900-109).
The rate of inhibition was calculated according to the following expression: Rate of inhibition (%)=100−(Amount of CXCL10 produced in the presence of the test compound/Amount of CXCL10 produced in the absence of the test compound)×100

Row | SMILES | inhibition at 0.1 µM [%]
1 | CCn1c(=O)cc(C2CC2)c2cc(-n3c(-c4ccc(C)cc4)c[nH]c3=O)ccc21 [Example 276, 4-cyclopropyl-1-ethyl-6-(5-(4-methylphenyl)-2-oxo-2,3-dihydro-1H-imidazol-1-yl)quinolin-2(1H)-one] | ≥ 50
2 | CCn1c(=O)cc(C2CC2)c2cc(-c3nc(C)[nH]c3-c3ccccc3)ccc21 [Example 283, 4-cyclopropyl-1-ethyl-6-(2-methyl-5-phenyl-1H-imidazol-4-yl)quinolin-2(1H)-one] | ≥ 50
3 | CCn1c(=O)cc(C2CC2)c2cc(-n3c(C)cc(=O)n3-c3ccccc3)ccc21 [Example 282b, 4-cyclopropyl-1-ethyl-6-(5-methyl-3-oxo-2-phenyl-2,3-dihydro-1H-pyrazol-1-yl)quinolin-2(1H)-one] | ≥ 50
4 | CCn1c(=O)cc(C2CC2)c2cc(-n3c(-c4ccc(C)cc4)cn(C)c3=O)ccc21 [Example 275, 4-cyclopropyl-1-ethyl-6-(3-methyl-5-(4-methylphenyl)-2-oxo-2,3-dihydro-1H-imidazol-1-yl)quinolin-2(1H)-one] | ≥ 50
5 | CCn1c(=O)cc(C2CCN(C)CC2)c2cc(C(=O)N(C)c3ccc(C)cc3)ccc21 [Example 14, 1-ethyl-N-methyl-N-(4-methylphenyl)-4-(1-methylpiperidin-4-yl)-2-oxo-1,2-dihydroquinoline-6-carboxamide] | ≥ 50
6 | CCn1c(=O)cc(N2CCOCC2)c2cc(-n3c(-c4ccc(C)cc4)c[nH]c3=O)ccc21 [Example 274] | ≥ 50
7 | CCn1c(=O)cc(N2CCOCC2)c2cc(-n3c(-c4ccccc4)cn(CCOC)c3=O)ccc21 [Example 263, 1-ethyl-6-(3-(2-methoxyethyl)-2-oxo-5-phenyl-2,3-dihydro-1H-imidazol-1-yl)-4-(morpholin-4-yl) quinolin-2(1H)-one] | ≥ 50
8 | CCCn1cc(-c2ccccc2)n(-c2ccc3c(c2)c(N2CCOCC2)cc(=O)n3CC)c1=O [Example 265, 1-ethyl-4-(morpholin-4-yl)-6-(2-oxo-5-phenyl-3-propyl-2,3-dihydro-1H-imidazol-1-yl)quinolin-2(1H)-one] | ≥ 50
9 | CCn1c(=O)cc(C(C)C)c2cc(N(C)C(=O)c3ccc(Cl)cc3)ccc21 [Example 16, 4-chloro-N-(1-ethyl-2-oxo-4-(propan-2-yl)-1,2-dihydroquinolin-6-yl)-N-methylbenzamide] | ≥ 50
10 | CCn1c(=O)cc(C2CC2)c2cc(-n3c(=O)[nH]c(=O)n3-c3ccccc3)ccc21 [Example 248, 1-(4-cyclopropyl-1-ethyl-2-oxo-1,2-dihydroquinolin-6-yl)-2-phenyl-1,2,4-triazolidine-3,5-dione] | ≥ 50
11 | CCn1c(=O)cc(N2CCOCC2)c2cc(-n3c(-c4ccccc4)cn(CCN4CCCCC4)c3=O)ccc21 [Example 259, 1-ethyl-4-(morpholin-4-yl)-6-(2-oxo-5-phenyl-3-(2-(piperidin-1-yl)ethyl)-2,3-dihydro-1H-imidazol-1-yl)quinolin-2(1H)-one] | ≥ 50
12 | CCn1c(=O)cc(C2CCN(C)CC2)c2cc(C(=O)N(C)c3ccc4c(c3)CCC4)ccc21 [Example 17, N-(2,3-dihydro-1H-inden-5-yl)-1-ethyl-N-methyl-4-(1-methylpiperidin-4-yl)-2-oxo-1,2-dihydroquinoline-6-carboxamide] | ≥ 50
13 | CCn1c(=O)cc(C2CCN(C)CC2)c2cc(C(=O)N3CCCc4ccccc43)ccc21 [Example 11, 6-(3,4-dihydroquinolin-1(2H)-ylcarbonyl)-1-ethyl-4-(1-methylpiperidin-4-yl)quinolin-2(1H)-one] | ≥ 50
14 | CCn1c(=O)cc(C2CC2)c2cc(-c3cccnc3-c3ccccc3)ccc21 [Example 278, 4-cyclopropyl-1-ethyl-6-(2-phenylpyridin-3-yl)quinolin-2(1H)-one] | ≥ 50
15 | CCn1c(=O)cc(N2CCOCC2)c2cc(-n3cc(C)nc3-c3ccccc3)ccc21 [Example 256, 1-ethyl-6-(4-methyl-2-phenyl-1H-imidazol-1-yl)-4-(morpholin-4-yl)quinolin-2(1H)-one] | ≥ 50
16 | CCn1c(=O)cc(N2CCOCC2)c2cc(-c3ccccc3-c3ccccc3)ccc21 [Example 258, 6-(biphenyl-2-yl)-1-ethyl-4-(morpholin-4-yl)quinolin-2(1H)-one] | ≥ 50
17 | CCN1CCC(c2cc(=O)n(CC)c3ccc(C(=O)N(C)c4ccccc4)cc23)CC1 [Example 8, 1-ethyl-4-(1-ethylpiperidin-4-yl)-N-methyl-2-oxo-N-phenyl-1,2-dihydroquinoline-6-carboxamide] | ≥ 50
18 | CCn1c(=O)cc(N2CCOCC2)c2cc(N3C(=O)CC[C@H]3c3ccccc3)ccc21 [Example 253, 1-ethyl-4-(morpholin-4-yl)-6-((5S)-2-oxo-5-phenylpyrrolidin-1-yl)quinolin-2(1H)-one] | ≥ 50
19 | CCn1c(=O)cc(N2CCOCC2)c2cc(-n3c(-c4ccc(Cl)cc4)cn(C)c3=O)ccc21 [Example 246, 6-(5-(4-chlorophenyl)-3-methyl-2-oxo-2,3-dihydro-1H-imidazol-1-yl)-1-ethyl-4-(morpholin-4-yl)quinolin-2(1H)-one] | ≥ 50
20 | CCn1c(=O)cc(C2CCC(O)CC2)c2cc(C(=O)N(C)c3ccc(Cl)cc3)ccc21 (stereo not drawn) [Example 286, N-(4-chlorophenyl)-1-ethyl-4-(4-hydroxycyclohexyl)-N-methyl-2-oxo-1,2-dihydroquinoline-6-carboxamide] | ≥ 50
21 | CCn1c(=O)cc(N2CCOCC2)c2cc(N(C)C(=O)c3ccc(Cl)cc3)ccc21 [Example 250, 4-chloro-N-(1-ethyl-4-(morpholin-4-yl)-2-oxo-1,2-dihydroquinolin-6-yl)-N-methylbenzamide] | ≥ 50
22 | CCn1c(=O)cc(C2CCN(C)CC2)c2cc(C(=O)N(C)c3ccc(C)c(F)c3)ccc21 [Example 292, 1-ethyl-N-(3-fluoro-4-methylphenyl)-N-methyl-4-(1-methylpiperidin-4-yl)-2-oxo-1,2-dihydroquinoline-6-carboxamide] | ≥ 50
23 | CCn1c(=O)cc(N2CCOCC2)c2cc(-n3c(-c4ccccc4)cn(CCN(C)C)c3=O)ccc21 [Example 261, 6-(3-(2-(dimethylamino)ethyl)-2-oxo-5-phenyl-2,3-dihydro-1H-imidazol-1-yl)-1-ethyl-4-(morpholin-4-yl)quinolin-2(1H)-one] | ≥ 50
24 | CCC1C(=O)N(c2ccccc2)N(c2ccc3c(c2)c(C2CC2)cc(=O)n3CC)C1=O (stereo not drawn) [Example 281, 1-(4-cyclopropyl-1-ethyl-2-oxo-1,2-dihydroquinolin-6-yl)-4-ethyl-2-phenylmazolidine-3,5-dione] | ≥ 50

From patent US10696637B2, “Nitrogen-containing heterocyclic compound” (FUJIFILM Corporation, priority 2015, dated 2020)
